“Also recorded” adds a separate entry of the source.

The values that follow come from paper PMC13193388, “Dimerization‐dependent NOTCH receptor transactivation unveils a class of highly selective NOTCH signalling inhibitors” (The Febs Journal, 2025).

In assay [1] the test system is N2 receptor. Put plainly: N2 transactivation luciferase reporter assay. The assay is classed as cell-based, human. Conditions: Fig. 4A,E, n = 3. The protocol: (§1) Reporter assays were performed as previously described. Briefly, stable cell lines expressing epitope‐tagged ligands and receptors were established via infection of cells with lentiviruses harbouring the appropriate ligand/receptor cDNA followed by selection with the encoded antibiotic (puromycin or neomycin). For transactivation assays, cells co‐expressing receptor and reporter were cocultured with cells stably expressing ligand alone (to enable transactivation). […] For each experiment, cells were seeded in triplicate in 12‐well plates. The NOTCH luciferase reporter harboured 10× Recombination Signal Binding Protein for Immunoglobulin kappa J (RBPJ) consensus DNA‐binding sites, and was cotransfected with thymidine kinase promoter‐driven Renilla luciferase control plasmid. Additionally, transfection efficiencies (routinely > 90%) were determined through visualization of cotransfected plasmid encoding the Tomato fluorescence reporter. Cells were lysed 36 h postplating, and luciferase activity was measured using a luciferase assay substrate (Promega). Luciferase activity was normalized by measuring Renilla luciferase activity (Promega). Where indicated, assays were performed in the presence or absence of 10 μM DAPT (Sigma‐Aldrich, St. Louis, MO, USA). Receptor and ligand protein levels were determined by western blotting. Experiments were performed three times. […]
A general note: Reporter assays use an easily measured gene product as a stand-in for the process of interest.

Assay [2] relates to N3 receptor. Put plainly: Cell surface ligand-N3 receptor binding assay. The assay is classed as cell-based, human. Conditions: 293 T cells stably expressing HA-tagged N3, crosslinked, western blot; n = 3. Here is the method:
(§2) Confluent 10‐cm dishes of 293 T cells stably expressing HA epitope‐tagged NOTCH receptors were washed with ice‐cold phosphate buffered saline (PBS)/bovine serum albumen (BSA) (1 mg·mL^−1). Cells were stimulated with 50 μL of ligand (0.5 mg·mL^−1) in the presence of 1.5 mL of PBS/BSA (1 mg·mL^−1) for 1 h, with gentle shaking, at 4 °C. Cells were washed once with PBS. Cells were incubated with crosslinkers in the presence of 2 mL of ice‐cold PBS for 15 min, with gentle shaking at 4 °C: 0.27 μM disuccinimidyl suberate (DSS) (Pierce, Rockford, IL, USA) and 0.07 μM bis‐sulfosuccinimidyl suberate (BS3) (Pierce). Cells were washed once with ice‐cold detachment buffer (10 mM Tris–HCl pH 7.4, 1 mM EDTA pH 7.4, 10% glycerol), scraped off the plates in 1 mL of detachment buffer and transferred to Eppendorf tubes. Cell pellets were lysed in 1 mL of solubilization buffer (125 mM NaCl, 10 mM Tris–HCl pH 7.4, 1 mM EDTA pH 7.4, 1% Triton X‐100) on ice for 30 min and centrifuged at 13000 r.p.m. for 10 min. Supernatants were incubated with HA antibody (Covance, Princeton, NJ, USA) overnight at 4 °C. 50 μL of washed (4×) protein A/G beads (50% solution) was added, and samples were incubated for 45 min at 4 °C. The beads were washed four times with solubilization buffer. 50 μL of sample buffer was added and samples were boiled for 5–10 min prior to gel electrophoresis. […]
For orientation: In western blotting, separated proteins are transferred to a membrane and probed.

In assay [3] the test system is N2 receptor. Put plainly: N2 receptor dimerization (immobilized HIS-N2 with HA-N2, western blot). The class given is biochemical, human. Conditions: HIS-N2 on nickel beads with HA-N2, western blot; n = 3. The protocol:
(§3) Human embryonic kidney (HEK) 293 T cells (RRID:CVCL_0063) were cultured in Dulbecco's Modified Eagle Medium (DMEM) (Gibco, Grand Island, NY, USA) supplemented with 10% fetal bovine serum (FBS) (Gibco). This cell line was obtained from the American Type Culture Collection (ATCC, Manassas, VA, USA). T‐ALL cell lines (kindly provided by Professor Jan Cools – VIB, Leuven): MOLT4 (RRID:CVCL_0013), ALL SIL (RRID:CVCL_1805), DND‐41 (RRID:CVCL_2022), HPB‐ALL (RRID:CVCL_1820), SUP‐T1 (RRID:CVCL_1714) and JURKAT (RRID:CVCL_0065), were cultured in Roswell Park Memorial Institute (RPMI) 1640 medium (Gibco) supplemented with 10% FBS (Gibco). […] RNA isolation, first‐strand cDNA synthesis and analysis of expression of transcripts by quantitative (q) PCR were performed as described previously. […] Expression of these proteins was determined using antibodies directed against either the coding region of the protein or the epitope tag. […]
(§4) Domains for recombinant protein production were cloned into the pET 28a vector in‐frame to an N‐terminal HIS6 epitope. […] Protein yields were determined by Bradford assay (Bio‐Rad, Hercules, CA, USA), and relative protein integrity and purity were determined by SDS/PAGE and Colloidal Blue staining (Invitrogen, Carlsbad, CA, USA). […] Proteins were separated by SDS/PAGE and associated proteins were detected by western blotting.

Assay [4] concerns NOTCH receptors. The assay is described as follows: Endogenous HEY expression in 293 T cells expressing NOTCH receptors (real-time qPCR). The class given is cell-based, human. Conditions: 3 h, DAPT 20 μM, n = 3 (Fig. 4F). Here is the method:
(§5) Human embryonic kidney (HEK) 293 T cells (RRID:CVCL_0063) were cultured in Dulbecco's Modified Eagle Medium (DMEM) (Gibco, Grand Island, NY, USA) supplemented with 10% fetal bovine serum (FBS) (Gibco). This cell line was obtained from the American Type Culture Collection (ATCC, Manassas, VA, USA). T‐ALL cell lines (kindly provided by Professor Jan Cools – VIB, Leuven): MOLT4 (RRID:CVCL_0013), ALL SIL (RRID:CVCL_1805), DND‐41 (RRID:CVCL_2022), HPB‐ALL (RRID:CVCL_1820), SUP‐T1 (RRID:CVCL_1714) and JURKAT (RRID:CVCL_0065), were cultured in Roswell Park Memorial Institute (RPMI) 1640 medium (Gibco) supplemented with 10% FBS (Gibco). Cells were maintained in a 5% CO2, 37 °C humidified incubator, tested monthly for mycoplasma contamination using a MycoAlert kit (Lonza, Walkersville, MD, USA), and checked for authenticity, in the last 3 years, by an in‐house service using short tandem repeat (STR) profiling. Transfections, lentivirus production and cell infections, western blotting and co‐immunoprecipitations have been described previously. […] RNA isolation, first‐strand cDNA synthesis and analysis of expression of transcripts by quantitative (q) PCR were performed as described previously. […] Expression of these proteins was determined using antibodies directed against either the coding region of the protein or the epitope tag. […]
In general terms: In qPCR the cycle at which signal appears reflects the starting amount.

The subject of assay [5] is N2 receptor. Put plainly: Cell surface ligand-N2 receptor binding assay. The class given is cell-based, human. Conditions: Fig. 4D; n = 3. Here is the method: as §2
In assay [6] the test system is N3 receptor. The assay is described as follows: N3 downstream NOTCH target gene expression (real-time qPCR). The settings on record: 293 T cells with HA-N3, recombinant DLL1, 3 h, n = 3. The class given is cell-based, human. The protocol: as §5
For assay [7], the target named is T1, NOTCH3-ECD (Homo sapiens, UniProt Q9UM47).
T1 construct: we purified the complete (recombinant) N3 ECD from human tissue culture cells; made in house; host or cells: PEC.3.30 (modified Per.E2A human cells), purified from culture supernatant
The assay is described as follows: SPR peptide binding to immobilized recombinant NOTCH3-ECD. The protocol: (§6) The NOTCH3‐ECD protein was produced using PEC.3.30, which is modified Per.E2A cells. DMEM cell supernatant containing the NOTCH3‐ECD protein was collected for purification. The supernatant was loaded onto a HisTrap high‐performance (HP) column (Cytiva, Uppsala, Sweden) and eluted with a gradient buffer that included 500 mM imidazole, 25 mM HEPES at pH 7.5 and 500 mM NaCl. The pooled fractions were concentrated using a 50 000 molecular weight cut‐off (MWCO) centrifugal filter (Millipore, Merck KGaA, Darmstadt, Germany), resulting in a buffer of 10 mM imidazole, 25 mM HEPES at pH 7.5 and 100 mM NaCl. The concentrated protein solution was subsequently loaded onto a Superdex 200 16/600 gel filtration column (Cytiva, Uppsala, Sweden), which was equilibrated with 25 mM HEPES at pH 7.5 and 100 mM NaCl. Similar yields of purified protein were obtained across all samples. The purified proteins were snap‐frozen in liquid nitrogen immediately after purification and stored at −80 °C.
Peptide binding to the NOTCH3‐ECD protein using SPR was performed using a Biacore T200. The NOTCH3‐ECD protein was immobilized onto a Biacore NTA Series S Sensor Chip (Cytiva), at a concentration of 0.1 μg·μL^−1 using Nickel‐NTA capture‐coupling, resulting in approximately 3500 RU of immobilized protein. Peptides were introduced using the ‘Eject rack’ function, followed by analysis. […]

Assay [8] deals with N2 receptor. Put plainly: Ligand-dependent N2 receptor cleavage (western blot). The class given is cell-based, human. Conditions: 293 T cells with HA-N2, recombinant DLL1; n = 3. The protocol:
as §5

The test system of assay [9] is N3 receptor. The assay is described as follows: N3 receptor dimerization (immobilized HIS-N3 with HA-N3, western blot). Conditions: peptides 10 μM unless otherwise stated, n = 3. The assay is classed as biochemical, human. Here is the method: as §3, §4
Assay [10] relates to N3 receptor. Put plainly: N3 transactivation luciferase reporter assay. The class given is cell-based, human. The protocol: as §1
The test system of assay [11] is N3 ECD homodimer. Put plainly: Nondenaturing gel: disruption of purified N3 ECD homodimer. Conditions: nondenaturing acrylamide gel, purified HIS-tagged N3 ECD; n = 3. The class given is biochemical, human. Here is the method: as §6
Assay [12] concerns N3 receptor. The assay is described as follows: Ligand-dependent N3 receptor cleavage (western blot). The assay is classed as cell-based, human. Conditions: 293 T cells, recombinant DLL1, peptides 10 μM unless otherwise stated. The protocol:
as §5

T1 sequence (Q9UM47 40-1643 limits assumed): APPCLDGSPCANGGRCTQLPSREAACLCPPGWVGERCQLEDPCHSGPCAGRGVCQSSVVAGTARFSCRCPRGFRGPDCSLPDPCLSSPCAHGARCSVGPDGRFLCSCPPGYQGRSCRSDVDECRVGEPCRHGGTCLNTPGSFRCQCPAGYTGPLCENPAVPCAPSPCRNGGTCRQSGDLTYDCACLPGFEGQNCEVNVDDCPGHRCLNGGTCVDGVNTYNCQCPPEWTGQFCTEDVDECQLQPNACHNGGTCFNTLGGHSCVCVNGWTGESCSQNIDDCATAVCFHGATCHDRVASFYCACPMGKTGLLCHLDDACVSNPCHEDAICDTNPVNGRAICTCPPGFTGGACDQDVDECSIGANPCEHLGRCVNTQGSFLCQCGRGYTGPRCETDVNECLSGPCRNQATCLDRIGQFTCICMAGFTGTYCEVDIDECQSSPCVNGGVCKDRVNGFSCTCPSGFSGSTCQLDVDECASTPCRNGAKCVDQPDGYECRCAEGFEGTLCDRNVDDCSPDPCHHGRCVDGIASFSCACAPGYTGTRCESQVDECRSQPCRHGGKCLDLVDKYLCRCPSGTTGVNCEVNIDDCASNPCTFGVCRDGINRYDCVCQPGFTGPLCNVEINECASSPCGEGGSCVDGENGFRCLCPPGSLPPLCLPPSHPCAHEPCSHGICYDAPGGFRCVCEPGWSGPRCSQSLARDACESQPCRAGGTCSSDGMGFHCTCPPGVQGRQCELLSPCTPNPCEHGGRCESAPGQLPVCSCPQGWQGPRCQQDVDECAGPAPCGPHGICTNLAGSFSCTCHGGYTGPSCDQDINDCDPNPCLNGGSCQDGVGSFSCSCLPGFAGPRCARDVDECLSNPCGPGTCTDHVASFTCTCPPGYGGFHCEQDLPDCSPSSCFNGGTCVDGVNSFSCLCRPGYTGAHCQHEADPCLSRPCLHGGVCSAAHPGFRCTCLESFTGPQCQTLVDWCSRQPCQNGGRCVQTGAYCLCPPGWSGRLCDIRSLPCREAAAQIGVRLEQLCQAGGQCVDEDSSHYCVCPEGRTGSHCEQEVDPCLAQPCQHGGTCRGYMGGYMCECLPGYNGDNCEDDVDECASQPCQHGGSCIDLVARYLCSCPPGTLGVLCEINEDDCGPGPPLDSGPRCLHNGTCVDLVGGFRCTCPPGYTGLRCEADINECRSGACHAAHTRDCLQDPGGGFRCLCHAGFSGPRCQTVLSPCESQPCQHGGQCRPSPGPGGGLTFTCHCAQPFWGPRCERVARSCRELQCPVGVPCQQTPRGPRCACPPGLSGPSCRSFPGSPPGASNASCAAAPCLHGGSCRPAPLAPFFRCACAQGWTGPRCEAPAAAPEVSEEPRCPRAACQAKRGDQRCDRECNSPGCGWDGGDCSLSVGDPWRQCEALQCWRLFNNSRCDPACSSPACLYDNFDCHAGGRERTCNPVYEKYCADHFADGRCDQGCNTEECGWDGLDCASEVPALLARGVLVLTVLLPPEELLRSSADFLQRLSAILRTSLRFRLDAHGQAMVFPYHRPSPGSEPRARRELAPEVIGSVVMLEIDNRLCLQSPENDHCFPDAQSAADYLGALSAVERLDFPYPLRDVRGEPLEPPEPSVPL

As to “EKYCADHFADGR [N34, N3 peptide (…) centred on the helix encompassing the core dimerization motif]”, the “effect on N2 receptor transactivation / downstream gene activation” value in assay [1] is “little detectable effect”. In addition, the “block of stable ligand-receptor binding at the cell surface (N3)” value in assay [2] is given as “efficiently blocked”. Moreover, the “effect on N2 receptor dimerization” value in [3] is given as “little detectable effect”. For the same sequence, the “suppression of NOTCH-driven gene expression compared to DAPT” value in assay [4] is recorded as “as efficiently as the generic gamma secretase inhibitor (GSI), DAPT”. Further, in assay [5], the “effect on stable N2 receptor-ligand binding at the cell surface” value is recorded as “little detectable effect”. In addition, in assay [6], the “inhibition of downstream NOTCH target genes (N3)” value was “robustly inhibit”. For the same sequence, the “K D (range in words)” value in assay [7] (pure recombinant N3 ECD purified from human cells) is given as “low nM range”. In addition, the “effect on N2 receptor cleavage” value in assay [8] was “little detectable effect”. Besides, the “inhibition of N3 receptor dimerization” value in assay [9] was “robustly inhibit”. The “selectivity for N3 over N2 and N1” value in [10] (Fig. 4E) is on record as “exquisite selectivity for N3 (and not N2 or N1”. Besides, the “inhibition of N3 transactivation (NOTCH reporter)” value in [10] (coculture with ligand cells, lysed 36 h postplating, peptides 10 μM unless otherwise stated, n = 3) is “robustly inhibit; also recorded: inhibited N3 receptor activity”. In assay [11], the “disruption of N3 ECD homodimer” value is given as “disrupted”. The “inhibition of ligand-dependent N3 receptor cleavage” value in assay [12] is given as “robustly inhibit”.
Take “EKYGGGHFADGR [control peptide, control peptide (…), core of the dimerization motif mutated (to glycine), reference compound]”: the “binding to N3 ECD” value in assay [7] (control peptide with motif core mutated to glycine) was “failed to bind efficiently to the N3 ECD”.
